Measured values as given in patent publication US11932606B2, “Anti-cancer/anti-fibrosis compounds” (THE REGENTS OF THE UNIVERSITY OF CALIFORNIA, priority 2017, dated 2024).

Experiments:
CDK19 (inactive) = CDK19 (inactive) (Homo sapiens (Human), UniProt Q9BWU1); test: CDK19 (inactive) LanthaScreen Eu kinase binding assay; conditions: read-out: IC50 against CDK19
Description: Compounds were screened in 1% DMSO (final) in the well. For 10 point titrations, 3-fold serial dilutions were conducted from the starting concentration.
The Bar-coded, low volume, white 384-well plate (Greiner Cat. #784207) were used for the assay. […] Then the Kinase Reaction was incubated at room temperature for 60 minutes. After the 1 hour Kinase Reaction incubation, the plate was read on a fluorescence plate reader (Infinite F500, Tecan Systems Inc, USA) and data was analyzed using XLfit from IDBS. The dose response curve was curve fit to model number 205 (sigmoidal dose-response model).

A204 = test: Cell viability assay (CellTiter-Glo, day 7); format: cell-based; conditions: Homo sapiens, 168 h; A204, day 7
Description: (§1) CLL-119, Hela, HCT116, MCF7, Colo205, SW620, H2052, MSTO-211H, U-251, Colo 357, OE33, Huh-7, A549, BT474, A204 and H290 cells were acquired from UCSF Cell and Genome Engineering Core. A549-Brm3 and H2030-Brm3 were from UCSF thoracic oncology lab. All cells were plated (96-well) in triplicate at 500 cells per well for testing (n=3) with compound. Medium was changed once on day 3. On day 7, the CellTiter-Glo Luminescent Cell Viability Assay (Promega) was performed to measure the response. For cell viability assay, two independent experiments have been done.

A549-BRM3 = test: Cell viability assay (CellTiter-Glo, day 7); format: cell-based; conditions: 168 h; A549-BRM3, day 7
Description: as §1

A549 = test: Cell viability assay (CellTiter-Glo, day 7); format: cell-based; conditions: Homo sapiens, 168 h; A549, day 7
Description: as §1

BT474 = test: Cell viability assay (CellTiter-Glo, day 7); format: cell-based; conditions: Homo sapiens, BT-474, 168 h; BT474, day 7
Description: as §1

CLL-119 = test: Cell viability assay (CellTiter-Glo, day 7); format: cell-based; conditions: 168 h; CLL-119, day 7
Description: as §1

Colo205 = test: Cell viability assay (CellTiter-Glo, day 7); format: cell-based; conditions: Homo sapiens, COLO 205, 168 h; Colo205, day 7
Description: as §1

Colo357 = test: Cell viability assay (CellTiter-Glo, day 7); format: cell-based; conditions: Homo sapiens, 168 h; Colo357, day 7
Description: as §1

H2030-BRM3 = test: Cell viability assay (CellTiter-Glo, day 7); format: cell-based; conditions: 168 h; H2030-BRM3, day 7
Description: as §1

H2052 = test: Cell viability assay (CellTiter-Glo, day 7); format: cell-based; conditions: Homo sapiens, NCI-H2052, 168 h; H2052, day 7
Description: as §1

H290 = test: Cell viability assay (CellTiter-Glo, day 7); format: cell-based; conditions: NCI-H290, 168 h; H290, day 7
Description: as §1

HCT116 = test: Cell viability assay (CellTiter-Glo, day 7); format: cell-based; conditions: Homo sapiens, HCT-116, 168 h; HCT116, day 7
Description: as §1

Hela = test: Cell viability assay (CellTiter-Glo, day 7); format: cell-based; conditions: Homo sapiens, 168 h
Description: as §1

Huh-7 = test: Cell viability assay (CellTiter-Glo, day 7); format: cell-based; conditions: Homo sapiens, 168 h; Huh-7, day 7
Description: as §1

MCF7 = test: Cell viability assay (CellTiter-Glo, day 7); format: cell-based; conditions: Homo sapiens, 168 h; MCF7, day 7
Description: as §1

MSTO-211H = test: Cell viability assay (CellTiter-Glo, day 7); format: cell-based; conditions: Homo sapiens, 168 h
Description: as §1

OE33 = test: Cell viability assay (CellTiter-Glo, day 7); format: cell-based; conditions: Homo sapiens, 168 h; OE33, day 7
Description: as §1

SW620 = test: Cell viability assay (CellTiter-Glo, day 7); format: cell-based; conditions: Homo sapiens, SW-620, 168 h; SW620, day 7
Description: as §1

U-251 = test: Cell viability assay (CellTiter-Glo, day 7); format: cell-based; conditions: Homo sapiens, 168 h; U-251, day 7
Description: as §1

[1] = system: colorectal cancer cell line SW620; test: Synergy experiment of Compound 29 and 2DG, cell viability; format: cell-based
Description: SW620 cells were plated (96-well) in triplicate at 500 cells per well for testing (n=3) with 5 mM 2-DG and different concentrations of compound 29 (0-10 uM). Medium was changed once on day 3. On day 7, the CellTiter-Glo Luminescent Cell Viability Assay (Promega) was performed to measure the response. For cell viability assay, two independent experiments have been done.

MV-4-11 cancer cell line = test: Western blot of treated cells; format: cell-based
Description: For cell lines: All cells were plated (6-well) at 5×10^5 cells per well with medium containing 1% FBS overnight. And then Compound 29 was added in different concentrations with medium containing 1% FBS. After 16 hours, cells were lysed in M-per Mammalian Protein Extraction Reagent (78501, Thermo Fisher Scientific) containing protease and phosphatase inhibitors (88669, Thermo Fisher Pierce). Total protein concentration was measured using the Pierce BCA protein Assay Kit (#23227).
Proteins were separated on SDS-PAGE and transferred to nitrocellulose membrane. Immunoblotting were performed using specific antibodies: phosphor-Stat1-pS727 (8826, Cell signaling), total-Stat1 (14994, Cell signaling), Phospho-Stat3 (Tyr705) (9131, Cell signaling), Stat3 (9139, Cell signaling), pSTAT5-pS726 (ab128896, abcam), stat5 (94205, cell signaling), YAP (14074, Cell signaling), CYR61(14479, Cell signaling), CTGF (ab6992, Abcam), c-Myc (13987, Cell signaling), Mcl-1 (94296, Cell signaling) and GAPDH (AM4300, Invitrogen). (FIG. 1A, FIG. 1B, FIG. 1C). MV-4-11 cancer cell line was treated with compound 29 at various concentrations (30 nM up to 10 μM) for 24 hours and 48 hours, respectively.

CDK19 (inactive), sequence (Q9BWU1 whole entry): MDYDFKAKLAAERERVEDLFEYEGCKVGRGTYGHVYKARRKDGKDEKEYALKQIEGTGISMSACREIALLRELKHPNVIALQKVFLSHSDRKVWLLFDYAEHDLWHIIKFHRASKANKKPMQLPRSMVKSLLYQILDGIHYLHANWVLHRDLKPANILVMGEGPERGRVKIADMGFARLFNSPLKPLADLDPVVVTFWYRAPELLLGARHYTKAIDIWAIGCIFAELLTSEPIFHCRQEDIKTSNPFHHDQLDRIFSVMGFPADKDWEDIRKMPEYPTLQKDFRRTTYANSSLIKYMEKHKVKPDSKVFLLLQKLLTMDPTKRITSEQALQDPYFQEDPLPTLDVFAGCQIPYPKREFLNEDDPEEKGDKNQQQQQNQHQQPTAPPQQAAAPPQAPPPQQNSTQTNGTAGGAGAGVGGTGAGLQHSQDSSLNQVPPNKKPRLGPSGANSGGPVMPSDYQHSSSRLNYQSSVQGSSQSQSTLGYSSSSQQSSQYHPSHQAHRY

IC50 (CDK19 (inactive)): < 0.3 µM | IC50 (A549-BRM3): 1 to 10 µM | IC50 (A549): 1 to 10 µM | IC50 (BT474): 1 to 10 µM | IC50 (Colo205): < 1 µM | IC50 (Colo357): 1 to 10 µM | IC50 (H2030-BRM3): < 1 µM | IC50 (H2052): 1 to 10 µM | IC50 (H290): 1 to 10 µM | IC50 (HCT116): 1 to 10 µM | IC50 (Hela): 1 to 10 µM | IC50 (Huh-7): < 1 µM | IC50 (MCF7): 1 to 10 µM | IC50 (SW620): 1 to 10 µM | IC50 (U-251): 1 to 10 µM | IC50 ([1]; Homo sapiens, SW-620, 168 h, SW620, without 2DG, day 7, read-out: Cell viability IC50 of Compound 29 alone): 1 to 10 µM
Structure (SMILES): Nc1nccc2c(Br)cc3cc(C(=O)[O-])ccc3c12.[Na+] [Compound 29, Sodium 1-amino-5-bromobenzo[h]isoquinoline-8-carboxylate]
IC50 (A204): 1 to 10 µM | IC50 (CLL-119): < 1 µM | IC50 (MSTO-211H): 1 to 10 µM | IC50 (OE33): < 1 µM | Synergy with 2DG in viability assay ([1]; SW620, 5 mM 2DG): synergizes with 2DG | level of p-STAT1(Ser727), p-STAT3(Tyr705), p-STAT5(Ser726) (MV-4-11 cancer cell line; MV-4-11, 30 nM up to 10 μM, 24 hours and 48 hours): dose-response down regulation | level of YAP, CYR61, CTGF, C-MYC, and MCL-1 (MV-4-11 cancer cell line; MV-4-11, 48 hours): down regulate
